SMILES strings stand for the structures.

The test system of this series is Pseudomonas aeruginosa PAO1 MB9798 (efflux+, IMP-1). The following applies: ratio MITC95 PA 9798/MITC95 PA 9799; imipenem at 2 μg/mL. The method, boiled down: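 Isogenic PAO1 pair (efflux+ MB9798, efflux− MB9799, both IMP-1) tested by microbroth MIC with fixed imipenem and/or ceftazidime, usually at CLSI breakpoint, plus fixed class A/C inhibitor against AmpC. MBL inhibitor titrated; concentration restoring susceptibility recorded and fold difference between strains taken as efflux extent.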

For the molecule `NC[C@@H](O)CNS(=O)(=O)c1ccc(-c2cccc3[nH]c(N)nc23)c(-c2nn[nH]n2)c1S(N)(=O)=O` [Example 298, (R)-4-(2-amino-1H-benzo[d]imidazol-4-yl)-N1-(3-amino-2-hydroxypropyl)-3-(2H-tetrazol-5-yl)-benzene-1,2-disulfonamide], the Efflux ratio is 0.69. For `COCCNCCNS(=O)(=O)c1ccc(-c2cccc3sc(N)nc23)c(-c2nnn[nH]2)c1S(N)(=O)=O` [Example 85, 4-(2-aminobenzo[d]thiazol-4-yl)-N1-(2-((2-methoxyethyl)amino)ethyl)-3-(1H-tetrazol-5-yl)benzene-1,2-disulfonamide], the Efflux ratio was 1.00.

As to `CS(=O)(=O)Nc1nc2c(-c3ccc(S(=O)(=O)N4CCNCC4)c(S(N)(=O)=O)c3-c3nn[nH]n3)cccc2s1` [Example 156, 3-(2-(Methylsulfonamido)benzo[d]thiazol-4-yl)-6-(piperazin-1-ylsulfonyl)-2-(2H-tetrazol-5-yl)benzenesulfonamide], the Efflux ratio is listed as 2.00. On to `Cc1ccc(-c2ccc(S(N)(=O)=O)c(S(N)(=O)=O)c2-c2nn[nH]n2)c2nc(N)sc12` [Example 6, 4-(2-amino-7-methylbenzo[d]thiazol-4-yl)-3-(2H-tetrazol-5-yl)benzene-1,2-disulfonamide], for which the Efflux ratio is on record as 1.00. For `NCc1nc2c(-c3ccc(S(=O)(=O)NC[C@H](O)CN)c(S(N)(=O)=O)c3-c3nn[nH]n3)cccc2s1` [Example 300, (R)—N1-(3-amino-2-hydroxypropyl)-4-(2-(aminomethyl)benzo[d]thiazol-4-yl)-3-(2H-tetrazol-5-yl)benzene-1,2-disulfonamide] the value was 1.00; for `Nc1nc2c(-c3ccc(S(N)(=O)=O)c(S(N)(=O)=O)c3-c3nn[nH]n3)cccc2s1` [Example 143, 4-(2-aminobenzo[d]thiazol-4-yl)-3-(2H-tetrazol-5-yl)benzene-1,2-disulfonamide], 0.50. Take `Nc1nc2c(-c3ccc(S(=O)(=O)N[C@H]4CN[C@@H](CO)C4)c(S(N)(=O)=O)c3-c3nnn[nH]3)cccc2[nH]1` [Example 173, 4-(2-amino-1H-benzo[d]imidazol-4-yl)-N^1-((3R,5R)-5-(hydroxymethyl)pyrrolidin-3-yl)-3-(1H-tetrazol-5-yl)benzene-1,2-disulfonamide]: the Efflux ratio was 1.00. For the molecule `NCCNS(=O)(=O)c1ccc(-c2cccc(C(=O)NC[C@@H](N)CO)c2N)c(-c2nn[nH]n2)c1S(N)(=O)=O` [Example 332, (R)-2-amino-N-(2-amino-3-hydroxypropyl)-4′-(N-(2-aminoethyl)sulfamoyl)-3′-sulfamoyl-2′-(2H-tetrazol-5-yl)-[1,1′-biphenyl]-3-carboxamide], the Efflux ratio came to 1.00. To `Nc1nc2c(-c3ccc(S(=O)(=O)N[C@H]4CN[C@@H](CO)C4)c(S(N)(=O)=O)c3-c3nnn[nH]3)cccc2s1` [Example 81, 4-(2-amino-1,3-benzothiazol-4-yl)-N1-[(3R,5R)-5-(hydroxymethyl)pyrrolidin-3-yl]-3-(1H-tetrazol-5-yl)benzene-1,2-disulfonamide] belongs 0.50; to `CNCCCN(C)S(=O)(=O)c1ccc(-c2cccc3sc(N)nc23)c(-c2nnn[nH]2)c1S(N)(=O)=O.O=C(O)C(F)(F)F` [Example 93, 3-(4-(2-aminobenzo[d]thiazol-4-yl)-N-methyl-2-sulfamoyl-3-(1H-tetrazol-5-yl)phenylsulfonamido)-N-methylpropan-1-aminium 2,2,2-trifluoroacetate], 1.00.

Regarding `Nc1nc2c(-c3ccc(S(=O)(=O)NCCC(N)C(F)F)c(S(N)(=O)=O)c3-c3nnn[nH]3)cccc2s1.O=CO` (stereo not shown) [Example 124, 4-(4-(2-aminobenzo[d]thiazol-4-yl)-2-sulfamoyl-3-(1H-tetrazol-5-yl)phenylsulfonamido)-1,1-difluorobutan-2-aminium formate], the Efflux ratio is 4.00.

On to `NCC1CN(S(=O)(=O)c2ccc(-c3cccc4sc(N)nc34)c(-c3nnn[nH]3)c2S(N)(=O)=O)CCO1.O=C(O)C(F)(F)F` (stereo not shown) [Example 104, (4-((4-(2-aminobenzo[d]thiazol-4-yl)-2-sulfamoyl-3-(1H-tetrazol-5-yl)phenyl)sulfonyl)morpholin-2-yl) methanaminium 2,2,2-trifluoroacetate], for which the Efflux ratio was 2.00. Take `CNc1ccc(-c2ccc(S(=O)(=O)NCCN)c(S(N)(=O)=O)c2-c2nn[nH]n2)cn1` [Example 243, N^1-(2-aminoethyl)-4-(6-(methylamino)pyridin-3-yl)-3-(2H-tetrazol-5-yl)benzene-1,2-disulfonamide]: the Efflux ratio turned out to be 1.00. For `CC(N)CNS(=O)(=O)c1ccc(-c2cccc3sc(N)nc23)c(-c2nnn[nH]2)c1S(N)(=O)=O.O=C(O)C(F)(F)F` (stereo not drawn) [Example 109, l-(4-(2-aminobenzo[d]thiazol-4-yl)-2-sulfamoyl-3-(1H-tetrazol-5-yl)phenylsulfonamido) propan-2-aminium 2,2,2-trifluoroacetate] the value was 0.50; for `Nc1nc2c(-c3ccc(S(=O)(=O)N4CCNCC4)c(S(N)(=O)=O)c3-c3nn[nH]n3)cccc2o1` [Example 159, 3-(2-aminobenzo[d]oxazol-4-yl)-6-(piperazin-1-ylsulfonyl)-2-(2H-tetrazol-5-yl)benzenesulfonamide], 2.00; for `NCc1nc2c(-c3ccc(S(=O)(=O)NC[C@@H](O)CN)c(S(N)(=O)=O)c3-c3nn[nH]n3)cccc2[nH]1` [Example 305, (S)—N1-(3-amino-2-hydroxypropyl)-4-(2-(aminomethyl)-1H-benzo[d]imidazole-4-yl)-3-(2H-tetrazol-5-yl)benzene-1,2-disulfonamide], 1.00. For `N#Cc1cccc(-c2ccc(S(=O)(=O)N[C@@H]3CCNC3)c(S(N)(=O)=O)c2-c2nnn[nH]2)c1N` [Example 132, (R)-2′-amino-3′-cyano-N4-(pyrrolidin-3-yl)-2-(1H-tetrazol-5-yl)-[1,1′-biphenyl]-3,4-disulfonamide] the value was 4.00; for `NCCNS(=O)(=O)c1ccc(-c2cccc3cn[nH]c23)c(-c2nn[nH]n2)c1S(N)(=O)=O` [Example 9, N^1-(2-aminoethyl)-4-(1H-indazol-7-yl)-3-(2H-tetrazol-5-yl)benzene-1,2-disulfonamide], 0.50. To `Nc1nc2c(-c3ccc(S(=O)(=O)NCC4COCCN4)c(S(N)(=O)=O)c3-c3nn[nH]n3)cccc2[nH]1` (stereo not shown) [Example 206, 4-(2-amino-1H-benzo[d]imidazol-4-yl)-N1-(morpholin-3-ylmethyl)-3-(2H-tetrazol-5-yl)benzene-1,2-disulfonamide] belongs 2.00.

For the molecule `NC[C@H]1CCN(S(=O)(=O)c2ccc(-c3cccc4sc(N)nc34)c(-c3nnn[nH]3)c2S(N)(=O)=O)C1` [Example 74, 3-(2-amino-1,3-benzothiazol-4-yl)-6-{[(3R)-3-(aminomethyl)pyrrolidin-l-yl]sulfonyl}-2-(1H-tetrazol-5-yl)benzenesulfonamide], the Efflux ratio came to 1.00. On to `COc1ccnc(CNS(=O)(=O)c2ccc(-c3cccc4sc(N)nc34)c(-c3nnn[nH]3)c2S(N)(=O)=O)n1` [Example 34, 4-(2-amino-1,3-benzothiazol-4-yl)-N1-[(4-methoxypyrimidin-2-yl)methyl]-3-(1H-tetrazol-5-yl)benzene-1,2-disulfonamide], for which the Efflux ratio was 4.00. For `CN1CCN(S(=O)(=O)c2ccc(-c3cccc4sc(N)nc34)c(-c3nnn[nH]3)c2S(N)(=O)=O)CC1` [Example 27, 3-(2-amino-1,3-benzothiazol-4-yl)-6-[(4-methylpiperazin-1-yl)sulfonyl]-2-(1H-tetrazol-5-yl)benzenesulfonamide] the value was 2.00; for `Nc1nc2c(-c3ccc(S(=O)(=O)NCCC4CNC4)c(S(N)(=O)=O)c3-c3nnn[nH]3)cccc2s1` [Example 30, 4-(2-amino-1,3-benzothiazol-4-yl)-N1-(2-azetidin-3-ylethyl)-3-(1H-tetrazol-5-yl)benzene-1,2-disulfonamide], 1.00; for `Nc1nc2c(-c3ccc(S(=O)(=O)NC4C[C@@H]5CN[C@H]4C5)c(S(N)(=O)=O)c3-c3nnn[nH]3)cccc2s1.O=CO` (stereo partly drawn) [Example 119, 4-(2-aminobenzo[d]thiazol-4-yl)-N1-((1S,4R)-2-azabicyclo[2.2.1]heptan-6-yl)-3-(1H-tetrazol-5-yl)benzene-1,2-disulfonamide, formate salt], 0.50. As for `Nc1nc2c(-c3ccc(S(=O)(=O)N4CC[S+]([O-])CC4)c(S(N)(=O)=O)c3-c3nnn[nH]3)cccc2s1` [Example 44, 3-(2-amino-1,3-benzothiazol-4-yl)-6-[(1-oxidothiomorpholin-4-yl)sulfonyl]-2-(1H-tetrazol-5-yl)benzenesulfonamide], the Efflux ratio is 2.00. For `CNC(=O)CNS(=O)(=O)c1ccc(-c2cccc3sc(N)nc23)c(-c2nnn[nH]2)c1S(N)(=O)=O` [Example 23, N^2-{[4-(2-amino-1,3-benzothiazol-4-yl)-2-sulfamoyl-3-(1H-tetrazol-5-yl)phenyl]sulfonyl}-N-methylglycinamide], the Efflux ratio is 1.00. To `Nc1nc2c(-c3ccc(S(=O)(=O)NCC4CNCCO4)c(S(N)(=O)=O)c3-c3nnn[nH]3)cccc2s1.O=C(O)C(F)(F)F` (stereo not shown) [Example 112, 2-((4-(2-aminobenzo[d]thiazol-4-yl)-2-sulfamoyl-3-(1H-tetrazol-5-yl)phenylsulfonamido)methyl)morpholin-4-ium 2,2,2-trifluoroacetate] belongs 1.00. `CN(C)S(=O)(=O)c1ccc(-c2cccc3sc(N)nc23)c(-c2nn[nH]n2)c1S(N)(=O)=O` [Example 151, 4-(2-aminobenzo[d]thiazol-4-yl)-N1,N1-dimethyl-3-(2H-tetrazol-5-yl)benzene-1,2-disulfonamide]: the Efflux ratio is on record as 16.00.

The values are drawn from patent publication US10544130B2, “Metallo-beta-lactamase inhibitors” (priority 2015, dated 2020).
